Measured values: patent US20150291565A1, “INDOLE COMPOUNDS AND THEIR USE AS ANTIMICROBIALS” (Memorial Sloan-Kettering Cancer Center, priority 2012, published 2015)
Converted amounts (≈) assume the structure as drawn. Where two headings read alike, the source gives them in different places.

Assays:
MRSA = assay: Disk diffusion assay, zone of inhibition, MRSA; type: cell-based, Staphylococcus aureus; settings: disk diffusion zone of inhibition
M. smegmatis (mc2155) = assay: Disk diffusion assay, zone of inhibition, M. smegmatis; type: cell-based; settings: disk diffusion zone of inhibition
[1] = tested on: S. aureus ATCC 29213 (MSSA); assay: Broth dilution MIC, S. aureus ATCC 29213; type: cell-based; settings: Staphylococcus aureus
[2] = tested on: S. aureus ATCC 33591 (MRSA); assay: Broth dilution MIC, S. aureus ATCC 33591; type: cell-based; settings: Staphylococcus aureus
S. aureus BAA-39 (MDR) = assay: Broth dilution MIC, S. aureus BAA-39; type: cell-based; settings: Staphylococcus aureus, BAA39
[3] = tested on: S. pneumoniae ATCC 6301 (PSSP); assay: Broth dilution MIC, S. pneumoniae ATCC 6301; type: cell-based; settings: Streptococcus pneumoniae
[4] = tested on: S. pneumoniae ATCC 700674 (PRSP); assay: Broth dilution MIC, S. pneumoniae ATCC 700674; type: cell-based; settings: Streptococcus pneumoniae
[5] = tested on: E. faecalis ATCC 29212 (VRE); assay: Broth dilution MIC, E. faecalis ATCC 29212; type: cell-based
[6] = tested on: E. faecium ATCC 700221 (VRE); assay: Broth dilution MIC, E. faecium ATCC 700221; type: cell-based
E. faecium CT-26 = assay: Broth dilution MIC, E. faecium CT-26; type: cell-based; settings: Enterococcus faecium
E. coli ECM 1694 = assay: Broth dilution MIC, E. coli ECM 1694; type: cell-based; settings: Escherichia coli
E. coli ATCC 25922 = assay: Broth dilution MIC, E. coli ATCC 25922; type: cell-based; settings: Escherichia coli
K. pneumoniae ATCC 13883 = assay: Broth dilution MIC, K. pneumoniae ATCC 13883; type: cell-based; settings: Klebsiella pneumoniae
K. pneumoniae ATCC 51503 = assay: Broth dilution MIC, K. pneumoniae ATCC 51503; type: cell-based; settings: Klebsiella pneumoniae
P. aeruginosa ATCC 9027 = assay: Broth dilution MIC, P. aeruginosa ATCC 9027; type: cell-based; settings: Pseudomonas aeruginosa
C. albicans ATCC 14053 = assay: Broth dilution MIC, C. albicans ATCC 14053; type: cell-based; settings: Candida albicans, ATCC14053; Table 1; range 64 down to 0.12 μg/ml
Protocol: In vitro Anti-bacterial & Anti-fungal Activity Assay: All test compounds were prepared as 6.4 mg/ml stock solutions in DMSO and further diluted according to the NCCLS M7-A6 (Page 5) document with sterile water or appropriate diluent. A working stock of 256 μg/ml was used to do 1:2 serial dilutions in 96-well plates. […] The inoculums were prepared by making a direct sterile water suspension of isolated colonies from 18 to 24 hr agar plates for all organisms (Mueller Hinton, Blood Agar or SDA plates). Each bacterial suspension was adjusted to read between 0.09 and 0.11 absorbance at 620 nm. […] These were further diluted 1/100 in appropriate broth for inoculating the 96-well plates. The C. albicans suspension was adjusted to read between 70 and 75% Transmittance at 530 nm and then diluted 1/500 in RPMI+MOPS broth. All aerobic bacterial and fungal plates were incubated for 18 hrs. at 35° C. […] Plates were read using a Beckman Automated Plate Reader at 650 nm. Readings were confirmed by visual examination of plates. (See Table 1, Table 2, Table 3, and Table 4). […] It is important to note that positive results against C. albicans are often indicative of broad spectrum antifungal activity, while negative results are not necessarily conclusory of a lack of activity against other fungus.

[7] = Table 1, range 64 down to 0.12 μg/ml, read-out: MIC S. aureus ATCC 29213
[8] = Table 2, broth dilution MIC in ug/ml, read-out: MIC S aureus ATCC 29213 MSSA
[9] = Table 1, range 64 down to 0.12 μg/ml, read-out: MIC S. aureus ATCC 33591
[10] = Table 2, broth dilution MIC in ug/ml, read-out: MIC S aureus ATCC 33591 MRSA
[11] = Table 1, range 64 down to 0.12 μg/ml, read-out: MIC S. aureus BAA-39
[12] = Table 2, broth dilution MIC in ug/ml, read-out: MIC S aureus BAA-39 MDR
[13] = ATCC6301, Table 1, range 64 down to 0.12 μg/ml, read-out: MIC S. pneumoniae ATCC 6301
[14] = ATCC6301, Table 2, broth dilution MIC in ug/ml, read-out: MIC S pneumonia ATCC 6301 PSSP
[15] = Table 1, range 64 down to 0.12 μg/ml, read-out: MIC S. pneumoniae ATCC 700674
[16] = Table 2, broth dilution MIC in ug/ml, read-out: MIC S pneumonia ATCC 700674 PRSP
[17] = Enterococcus faecalis, Table 1, range 64 down to 0.12 μg/ml, read-out: MIC E. faecalis ATCC 29212
[18] = Table 2, broth dilution MIC in ug/ml, read-out: MIC E faecalis ATCC 29212 VRE
[19] = Enterococcus faecium, Table 1, range 64 down to 0.12 μg/ml, read-out: MIC E. faecium ATCC 700221
[20] = Table 2, broth dilution MIC in ug/ml, read-out: MIC E faecium ATCC 700221 VRE
[21] = CT26, Table 1, range 64 down to 0.12 μg/ml, read-out: MIC E. faecium CT-26
[22] = CT26, Table 2, broth dilution MIC in ug/ml, read-out: MIC E faecium CT-25
[23] = ECM1694, Table 1, range 64 down to 0.12 μg/ml, read-out: MIC E. coli ECM 1694
[24] = ECM1694, Table 2, broth dilution MIC in ug/ml, read-out: MIC E. coli ECM 1693
[25] = ATCC 25921 / ATCC 25922, Table 2, broth dilution MIC in ug/ml, read-out: MIC E. coli ATCC 25921
[26] = ATCC25922, Table 1, range 64 down to 0.12 μg/ml, read-out: MIC E. coli ATCC 25922
[27] = ATCC13883, Table 1, range 64 down to 0.12 μg/ml, read-out: MIC K. pneumoniae ATCC 13883
[28] = ATCC13883, Table 2, broth dilution MIC in ug/ml, read-out: MIC K pneumonia ATCC 13883
[29] = ATCC51503, Table 1, range 64 down to 0.12 μg/ml, read-out: MIC K. pneumoniae ATCC 51503
[30] = ATCC51503, Table 2, broth dilution MIC in ug/ml, read-out: MIC K pneumonia ATCC 51503
[31] = ATCC 9026 / ATCC 9027, Table 2, broth dilution MIC in ug/ml, read-out: MIC P aeruginosa ATCC 9026
[32] = ATCC9027, Table 1, range 64 down to 0.12 μg/ml, read-out: MIC P. aeruginosa ATCC 9027

SMILES: c1cc(-c2cc3ccc(C4=NCCN4)cc3[nH]2)ccc1NC1CCNCC1 [SKI-6]
- Zone Size MRSA (MRSA): 15 mm
- Zone Size M. smegmatis (M. smegmatis (mc2155)): 16.3 mm
- MIC [1, 7]: 8 µg/mL (≈ 22.3 µM)
- MIC [1, 8]: 8 µg/mL (≈ 22.3 µM)
- MIC [2, 9]: 8 µg/mL (≈ 22.3 µM)
- MIC [2, 10]: 8 µg/mL (≈ 22.3 µM)
- MIC (S. aureus BAA-39 (MDR); [11]): 8 µg/mL (≈ 22.3 µM)
- MIC (S. aureus BAA-39 (MDR); [12]): 8 µg/mL (≈ 22.3 µM)
- MIC [3, 13]: 32 µg/mL (≈ 89 µM)
- MIC [3, 14]: 32 µg/mL (≈ 89 µM)
- MIC [4, 15]: > 64 µg/mL
- MIC [4, 16]: 64 µg/mL (≈ 178 µM)
- MIC [5, 17]: > 64 µg/mL
- MIC [5, 18]: 64 µg/mL (≈ 178 µM)
- MIC [6, 19]: > 64 µg/mL
- MIC [6, 20]: 64 µg/mL (≈ 178 µM)
- MIC (E. faecium CT-26; [21]): 64 µg/mL (≈ 178 µM)
- MIC (E. faecium CT-26; [22]): 64 µg/mL (≈ 178 µM)
- MIC (E. coli ECM 1694; [23]): 4 µg/mL (≈ 11.1 µM)
- MIC (E. coli ECM 1694; [24]): 4 µg/mL (≈ 11.1 µM)
- MIC (E. coli ATCC 25922; [25]): 32 µg/mL (≈ 89 µM)
- MIC (E. coli ATCC 25922; [26]): 32 µg/mL (≈ 89 µM)
- MIC (K. pneumoniae ATCC 13883; [27]): > 64 µg/mL
- MIC (K. pneumoniae ATCC 13883; [28]): 64 µg/mL (≈ 178 µM)
- MIC (K. pneumoniae ATCC 51503; [29]): > 64 µg/mL
- MIC (K. pneumoniae ATCC 51503; [30]): 64 µg/mL (≈ 178 µM)
- MIC (P. aeruginosa ATCC 9027; [31]): 64 µg/mL (≈ 178 µM)
- MIC (P. aeruginosa ATCC 9027; [32]): > 64 µg/mL
- MIC (C. albicans ATCC 14053): > 64 µg/mL

SMILES: CN1CCC(Nc2ccc(-c3cc4ccc(C5=NCCN5)cc4[nH]3)cc2)CC1 [SKI-7]
- Zone Size MRSA (MRSA): 19 mm
- Zone Size M. smegmatis (M. smegmatis (mc2155)): 30 mm
- MIC [1, 7]: 2 µg/mL (≈ 5.35 µM)
- MIC [1, 8]: 2 µg/mL (≈ 5.35 µM)
- MIC [2, 9]: 2 µg/mL (≈ 5.35 µM)
- MIC [2, 10]: 2 µg/mL (≈ 5.35 µM)
- MIC (S. aureus BAA-39 (MDR); [11]): 2 µg/mL (≈ 5.35 µM)
- MIC (S. aureus BAA-39 (MDR); [12]): 2 µg/mL (≈ 5.35 µM)
- MIC [3, 13]: 4 µg/mL (≈ 10.7 µM)
- MIC [3, 14]: 4 µg/mL (≈ 10.7 µM)
- MIC [4, 15]: 32 µg/mL (≈ 85.7 µM)
- MIC [4, 16]: 32 µg/mL (≈ 85.7 µM)
- MIC [5, 17]: 16 µg/mL (≈ 42.8 µM)
- MIC [5, 18]: 16 µg/mL (≈ 42.8 µM)
- MIC [6, 19]: 16 µg/mL (≈ 42.8 µM)
- MIC [6, 20]: 16 µg/mL (≈ 42.8 µM)
- MIC (E. faecium CT-26; [21]): 16 µg/mL (≈ 42.8 µM)
- MIC (E. faecium CT-26; [22]): 16 µg/mL (≈ 42.8 µM)
- MIC (E. coli ECM 1694; [23]): 0.25 µg/mL (≈ 0.669 µM)
- MIC (E. coli ECM 1694; [24]): 0.25 µg/mL (≈ 0.669 µM)
- MIC (E. coli ATCC 25922; [25]): 2 µg/mL (≈ 5.35 µM)
- MIC (E. coli ATCC 25922; [26]): 2 µg/mL (≈ 5.35 µM)
- MIC (K. pneumoniae ATCC 13883; [27]): > 64 µg/mL
- MIC (K. pneumoniae ATCC 13883; [28]): 64 µg/mL (≈ 171 µM)
- MIC (K. pneumoniae ATCC 51503; [29]): > 64 µg/mL
- MIC (K. pneumoniae ATCC 51503; [30]): 64 µg/mL (≈ 171 µM)
- MIC (P. aeruginosa ATCC 9027; [31]): 64 µg/mL (≈ 171 µM)
- MIC (P. aeruginosa ATCC 9027; [32]): > 64 µg/mL
- MIC (C. albicans ATCC 14053): 32 µg/mL (≈ 85.7 µM)
